Assay results from article PMC10878397, “Development of Potent Dual BET/HDAC Inhibitors via Pharmacophore Merging and Structure-Guided Optimization” (ACS Chemical Biology, 2024).
“And” between values parts separate entries of the source, which are not always exact repeats. Equal entries are not always repeated.

Legend:
Type in all cases: cell-based
[1] = system: histone H3 K9/K14 acetylation in PaTu8988T cells; experiment: Western blot of histone H3 K9/K14 acetylation; details: 48 h, 1 μM inhibitor or concentration series
Procedure: Protein samples were prepared in RIPA buffer (9806S, Cell Signaling Technology) containing a protease inhibitor cocktail (Roche). Proteins were separated in SDS-polyacrylamide gels, transferred to nitrocellulose membranes with a Trans-Blot Turbo Transfer System (Bio-Rad), and incubated with antibodies dissolved in TBS buffer containing 5% BSA and 0.1% Tween20. The following primary antibodies were used: rabbit anti-β-actin (ab8227, Abcam) and rabbit antiacetyl-histone H3 (Lys9/Lys14; 9677, Cell Signaling Technology). Primary antibodies were recognized by a peroxidase-coupled secondary antibody (Jackson), and signals were detected by chemiluminescence.

BRD4 BD2 = BRD4 BD2 (Homo sapiens, UniProt O60885); experiment: NanoBRET target engagement assay (HEK293T); design: BRD4 bromodomains and full-length HDACs were obtained as plasmids cloned in-frame with a terminal NanoLuc fusion; host or cells: HEK293T; details: intact cells
Procedure: (§1) The assay was performed as described previously.[17],[59] In brief, BRD4 bromodomains and full-length HDACs were obtained as plasmids cloned in-frame with a terminal NanoLuc fusion (Promega). Plasmids were transfected into HEK293T cells using FuGENE HD (Promega, E2312), and proteins were allowed to express for 20 h. Serially diluted inhibitor and the corresponding NanoBRET Tracer (Promega) at a concentration determined previously as the tracer KD, app were pipetted into white 384-well plates (Greiner #781207) for BRD assays or white 96-well plates (Corning #3600) for HDAC using an Echo acoustic dispenser (Labcyte). The corresponding protein-transfected cells were added and reseeded at a density of 2 × 10^5 cells/mL after trypsinization and resuspended in Opti-MEM without phenol red (Life Technologies). The system was allowed to equilibrate for 2 h at 37 °C/5% CO2 prior to BRET measurements. To measure BRET, NanoBRET NanoGlo substrate + Extracellular NanoLuc Inhibitor (Promega, N2540) was added as per the manufacturer’s protocol, and filtered luminescence was measured on a PHERAstar plate reader (BMG Labtech) equipped with a luminescence filter pair (450 nm BP filter (donor) and 610 nm LP filter (acceptor)). For lysed-mode NanoBRET experiments, digitonin (Promega, #G9441) was added as per the manufacturer’s instructions to a final concentration of […].

BRD4 BD1 = BRD4 BD1 (Homo sapiens, UniProt O60885); experiment: NanoBRET target engagement assay (HEK293T); design: BRD4 bromodomains and full-length HDACs were obtained as plasmids cloned in-frame with a terminal NanoLuc fusion; host or cells: HEK293T; details: intact cells
Procedure: as §1

HDAC1 = HDAC1 (Homo sapiens, UniProt Q13547); experiment: NanoBRET target engagement assay (HEK293T); design: BRD4 bromodomains and full-length HDACs were obtained as plasmids cloned in-frame with a terminal NanoLuc fusion; host or cells: HEK293T
Procedure: (§2) The assay was performed as described previously.[17],[59] In brief, BRD4 bromodomains and full-length HDACs were obtained as plasmids cloned in-frame with a terminal NanoLuc fusion (Promega). Plasmids were transfected into HEK293T cells using FuGENE HD (Promega, E2312), and proteins were allowed to express for 20 h. […] The corresponding protein-transfected cells were added and reseeded at a density of 2 × 10^5 cells/mL after trypsinization and resuspended in Opti-MEM without phenol red (Life Technologies). The system was allowed to equilibrate for 2 h at 37 °C/5% CO2 prior to BRET measurements. […] For lysed-mode NanoBRET experiments, digitonin (Promega, #G9441) was added as per the manufacturer’s instructions to a final concentration of […].

HDAC3 = HDAC3 (Homo sapiens, UniProt O15379); experiment: NanoBRET target engagement assay (HEK293T); design: BRD4 bromodomains and full-length HDACs were obtained as plasmids cloned in-frame with a terminal NanoLuc fusion; host or cells: HEK293T; details: intact cells
Procedure: as §2

HDAC2 = HDAC2 (Homo sapiens, UniProt Q92769); experiment: NanoBRET target engagement assay (HEK293T); design: BRD4 bromodomains and full-length HDACs were obtained as plasmids cloned in-frame with a terminal NanoLuc fusion; host or cells: HEK293T
Procedure: as §2

HCC2429 cells = experiment: CellTiter-Glo cell viability assay; details: Homo sapiens, HCC2429, 72 h; treatment for 3 days
Procedure: (§3) PDAC cell line PaTu8988T was obtained from ATCC and cultured in Dulbecco’s modified Eagle’s medium (DMEM) containing 10% FBS, 25 mM glucose, […], 1 mM sodium pyruvate, and 1% penicillin–streptomycin. Nut midline carcinoma cell line HCC2429 was kindly provided by Lead Discovery Center GmbH (Dortmund, Germany) and was cultured in RPMI1640 medium containing 10% FBS, 2 mM L-glutamine, and 1% penicillin–streptomycin. Cell line PaTu8988T was authenticated using the Multiplex human Cell line Authentication Test (MCA) by Multiplexion GmbH, and cell line HCC2429 was authenticated using short tandem repeat (STR) profiling.
(§4) The assays were performed using Promega’s CellTiter-Glo Luminescent Cell Viability Assay kit (Cat. #G7571). First, compounds dissolved in DMSO were printed in 96-well plates (Corning) by using a Tecan D300e digital dispenser. Then, cells were seeded into the compound-printed plates using a Thermo Multidrop reagent dispenser. 72 h later, one volume of diluted CellTiter-Glo reagent (1:4 dilution with PBS) was added to individual wells by using the Thermo Multidrop reagent dispenser again. Plates were shaken for 2 min and incubated for 10 min in the dark. Luminescent signals were read by using a Tecan Spark Multimode Microplate Reader. The values were normalized to the DMSO control wells and presented as a percentage of cell viability. Dose–response curves were drawn with GraphPad Prism 8.

PaTu8988T cells = experiment: CellTiter-Glo cell viability assay; details: Homo sapiens, PaTu 8988t, 72 h; treatment for 3 days
Procedure: as §3, §4

HDAC1, sequence (Q13547 whole entry, the tested form may be a part): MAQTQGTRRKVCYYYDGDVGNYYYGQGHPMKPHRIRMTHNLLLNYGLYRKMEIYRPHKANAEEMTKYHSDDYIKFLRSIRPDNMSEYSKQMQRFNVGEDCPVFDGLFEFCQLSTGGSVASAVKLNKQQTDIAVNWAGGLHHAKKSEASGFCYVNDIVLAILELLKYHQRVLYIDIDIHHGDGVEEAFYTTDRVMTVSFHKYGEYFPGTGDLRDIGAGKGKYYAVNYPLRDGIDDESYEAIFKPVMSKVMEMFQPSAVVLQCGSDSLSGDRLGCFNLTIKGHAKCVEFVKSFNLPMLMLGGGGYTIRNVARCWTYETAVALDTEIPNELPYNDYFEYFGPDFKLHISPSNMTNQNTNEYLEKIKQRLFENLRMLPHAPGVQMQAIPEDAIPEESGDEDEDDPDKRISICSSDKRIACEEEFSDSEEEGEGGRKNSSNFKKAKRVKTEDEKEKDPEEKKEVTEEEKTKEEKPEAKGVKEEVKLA
HDAC2, sequence (Q92769 whole entry, the tested form may be a part): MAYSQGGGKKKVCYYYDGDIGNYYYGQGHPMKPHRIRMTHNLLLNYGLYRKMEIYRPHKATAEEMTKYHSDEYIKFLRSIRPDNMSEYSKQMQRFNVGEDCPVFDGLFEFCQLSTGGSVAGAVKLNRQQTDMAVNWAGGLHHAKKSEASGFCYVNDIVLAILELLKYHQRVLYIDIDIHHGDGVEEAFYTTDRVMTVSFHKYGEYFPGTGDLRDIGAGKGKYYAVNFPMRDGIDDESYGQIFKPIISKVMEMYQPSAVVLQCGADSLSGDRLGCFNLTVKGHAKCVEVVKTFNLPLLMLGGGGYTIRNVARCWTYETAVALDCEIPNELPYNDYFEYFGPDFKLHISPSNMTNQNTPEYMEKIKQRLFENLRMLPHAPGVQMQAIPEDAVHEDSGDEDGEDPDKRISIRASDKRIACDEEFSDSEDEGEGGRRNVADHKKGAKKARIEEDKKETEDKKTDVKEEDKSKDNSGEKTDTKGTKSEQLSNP
HDAC3, sequence (O15379 whole entry, the tested form may be a part): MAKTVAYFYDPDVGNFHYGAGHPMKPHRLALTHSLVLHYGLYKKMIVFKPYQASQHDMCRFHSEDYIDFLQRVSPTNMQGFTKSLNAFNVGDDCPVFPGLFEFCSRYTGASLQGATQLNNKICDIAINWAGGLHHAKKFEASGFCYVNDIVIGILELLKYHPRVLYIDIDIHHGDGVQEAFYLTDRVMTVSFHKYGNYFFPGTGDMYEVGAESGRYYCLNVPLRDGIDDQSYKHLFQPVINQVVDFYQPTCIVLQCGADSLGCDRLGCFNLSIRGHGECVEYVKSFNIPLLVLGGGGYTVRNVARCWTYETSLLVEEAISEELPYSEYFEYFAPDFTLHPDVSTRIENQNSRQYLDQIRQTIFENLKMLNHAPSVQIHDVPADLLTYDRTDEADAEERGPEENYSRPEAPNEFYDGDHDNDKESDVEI

SMILES | inhibition of histone H3 K9/K14 deacetylation (Western blot) [1] | EC50 (BRD4 BD2) [nM] | EC50 (BRD4 BD1) [nM] | EC50 (HDAC1; intact cells) [nM] | EC50 (HDAC3) [µM] | EC50 (HDAC2; intact cells) | IC50 (HCC2429 cells) [nM] | IC50 (PaTu8988T cells) [nM] | EC50 (HDAC1; lysed-mode) [nM] | EC50 (HDAC2; lysed-mode) [nM]
Cn1cc(-c2ccc(C(=O)Nc3ccccc3N)cc2)c2cc[nH]c2c1=O [NB462] | significantly more potent than CI-944 | 190 ± 20 | 250 ± 20 | 2600 ± 1100 | 32 ± 16 | 1600 ± 700 nM | 400 ± 30 | 2700 ± 300 |  | 
Cn1cc(-c2ccc(C(=O)Nc3ccccc3N)nc2)c2cc[nH]c2c1=O [NB500] | much less potent | 160 ± 40 | 240 ± 20 | 4800 ± 2300 | > 50 | 2500 ± 700 nM | 220 ± 20 | 3200 ± 400 |  | 
Cn1cc(-c2ccc(C(=O)Nc3cc(-c4ccccc4)ccc3N)cc2)c2cc[nH]c2c1=O [NB503] | concentration-dependent | 520 ± 180 | 420 ± 110 | 190 ± 30 | 6.5 ± 2.8 | 360 ± 120 nM | 630 ± 80 | 2800 ± 200 |  | 
Cn1cc(-c2ccc(C(=O)Nc3cc(-c4ccccc4)ccc3N)nc2)c2cc[nH]c2c1=O [NB512] | more potent inhibitor overall | 250 ± 120 | 360 ± 130 | 110 ± 30 | 13.6 ± 4.8 | 98 nM and 100 nM | 420 ± 50 | 3600 ± 400 | 27 | 37
